Measured values as given in patent publication US20250171459A1, “2-METHYL-4',5'-DIHYDROSPIRO[PIPERIDINE-4,7'-THIENO[2,3-C]PYRAN] DERIVATIVES AS INHIBITORS OF APOL1 AND METHODS OF USING SAME” (Vertex Pharmaceuticals Incorporated, priority 2022, published 2025).

Target: T1, APOL1 (Homo sapiens, UniProt O14791)
T1 sequence (O14791 1-398 S342G/I384M): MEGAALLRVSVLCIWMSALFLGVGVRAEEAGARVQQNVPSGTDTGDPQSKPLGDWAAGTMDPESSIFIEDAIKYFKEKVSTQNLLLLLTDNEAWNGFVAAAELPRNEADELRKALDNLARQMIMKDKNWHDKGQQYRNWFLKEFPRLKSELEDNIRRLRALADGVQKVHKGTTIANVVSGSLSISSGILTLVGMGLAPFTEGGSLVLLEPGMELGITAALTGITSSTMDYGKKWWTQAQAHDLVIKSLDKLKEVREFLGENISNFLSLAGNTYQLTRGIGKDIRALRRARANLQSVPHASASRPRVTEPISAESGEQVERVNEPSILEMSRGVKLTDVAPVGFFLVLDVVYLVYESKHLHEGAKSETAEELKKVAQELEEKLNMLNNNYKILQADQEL
Experiment: MultiTox-Fluor Multiplex Cytotoxicity Assay in tet-inducible APOL1 T-REx-HEK293 cells (cell rescue, ratio of dead to live cells)
Assay type: cell-based
Details: tet-inducible transgenic APOL1 T-REx-HEK293 cell lines, 50 ng/mL tet, 24 hours; read-out: IP50 (i.e., IC50 for cell proliferation)
Procedure, shortened: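 T-REx-HEK293 cells with tet-inducible APOL1 were treated with compound (10 μM top, 10-point 3-fold dilution, duplicate) plus 50 ng/mL tetracycline for 24 h at 37° C, in DMEM with 2% tet-free FBS. MultiTox-Fluor protease signals gave a dead/live ratio, normalized to no tet (100% viability) and tet alone (0%).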

Compound	IC50
CCCNC(=O)c1c(C(F)(F)F)sc2c1CCO[C@@]21CCN(Cc2cn(CCS(C)(=O)=O)nn2)[C@@H](C)C1 [Compound 1007, (2′S,7R)-2′-methyl-1′-[[1-(2-methylsulfonylethyl)triazol-4-yl]methyl]-N-propyl-2-(trifluoromethyl)spiro[4,5-dihydrothieno[2,3-c]pyran-7,4′-piperidine]-3-carboxamide]	500 to 1000 nM
C[C@H]1C[C@@]2(CCN1Cc1cn(CCS(C)(=O)=O)nn1)OCCc1c2sc(C(F)(F)F)c1C(=O)NCC1CC1 [Compound 1008]	500 to 1000 nM
C[C@H]1C[C@@]2(CCN1Cc1cn(CCS(C)(=O)=O)nn1)OCCc1c2sc(C(F)(F)F)c1C(=O)NCC(F)F [Compound 1009]	500 to 1000 nM
C[C@H]1C[C@@]2(CCN1Cc1cn(CCS(C)(=O)=O)nn1)OCCc1c2sc(C(F)(F)F)c1Cl [Compound 1010, (2′S, 7R)-3-chloro-2′-methyl-1′-[[1-(2-methylsulfonylethyl)triazol-4-yl]methyl]-2-(trifluoromethyl)spiro[4,5-dihydrothieno[2,3-c]pyran-7,4′-piperidine]]	< 100 nM
C[C@H]1C[C@@]2(CCN1Cc1cnn(CCS(C)(=O)=O)c1)OCCc1cc(C(F)(F)C(F)F)sc12 [Compound 1011, (2′S, 7R)-2′-methyl-1′-[[1-(2-methylsulfonylethyl)pyrazol-4-yl]methyl]-2-(1,1,2,2-tetrafluoroethyl)spiro[4,5-dihydrothieno[2,3-c]pyran-7,4′-piperidine]]	< 100 nM
C[C@H]1C[C@@]2(CCN1Cc1cnn(CCS(C)(=O)=O)c1)OCC(O)c1cc(C(F)(F)C(F)F)sc12 (stereo partly drawn) [Compound 1012, (2′S, 7R)-2′-methyl-1′-[[1-(2-methylsulfonylethyl)pyrazol-4-yl]methyl]-2-(1,1,2,2-tetrafluoroethyl)spiro[4,5-dihydrothieno[2,3-c]pyran-7,4′-piperidine]-4-ol]	< 100 nM
[2H]C(OCC)c1cc2c(s1)[C@]1(CCN(Cc3cnn(CCS(C)(=O)=O)c3)[C@@H](C)C1)OCC2 (stereo partly drawn) [Compound 1015, (2′S, 7R)-2-[deuterio(ethoxy)methyl]-2′-methyl-1′-[[1-(2-methylsulfonylethyl)pyrazol-4-yl]methyl]spiro[4,5-dihydrothieno[2,3-c]pyran-7,4′-piperidine]]	< 100 nM
C[C@H]1C[C@@]2(CCN1Cc1cnn(CCS(C)(=O)=O)c1)OCCc1cc(CO)sc12 [Compound 1016, [(2′S,7R)-2′-methyl-1′-[[1-(2-methylsulfonylethyl)pyrazol-4-yl]methyl]spiro[4,5-dihydrothieno[2,3-c]pyran-7,4′-piperidine]-2-yl]methanol]	100 to 500 nM
COCc1cc2c(s1)[C@]1(CCN(Cc3cnn(CCS(C)(=O)=O)c3)[C@@H](C)C1)OCC2 [Compound 1017, (2′S, 7R)-2-(methoxymethyl)-2′-methyl-1′-[[1-(2-methylsulfonylethyl)pyrazol-4-yl]methyl]spiro[4,5-dihydrothieno[2,3-c]pyran-7,4′-piperidine]]	100 to 500 nM
C[C@H]1C[C@@]2(CCN1Cc1cnn(C)c1)OCCc1cc(CO)sc12 [Compound 1018, [(2′S, 7R)-2′-methyl-1′-[(1-methylpyrazol-4-yl)methyl]spiro[4,5-dihydrothieno[2,3-c]pyran-7,4′-piperidine]-2-yl]methanol]	100 to 500 nM
C[C@H]1C[C@@]2(CCN1Cc1cn(CCS(C)(=O)=O)nn1)OCCc1cc(CO)sc12 [Compound 1019, [(2′S, 7R)-2′-methyl-1′-[[1-(2-methylsulfonylethyl)triazol-4-yl]methyl]spiro[4,5-dihydrothieno[2,3-c]pyran-7,4′-piperidine]-2-yl]methanol]	500 to 1000 nM
C[C@H]1C[C@@]2(CCN1Cc1cnn(C)c1)OCCc1cc(C(C)(C)C)sc12 [Compound 1020, (2S,4R)-2′-(tert-butyl)-2-methyl-1-((1-methyl-1H-pyrazol-4-yl)methyl)-4′,5′-dihydrospiro[piperidine-4,7′-thieno[2,3-c]pyran]]	500 to 1000 nM
C[C@H]1CC2(CCN1Cc1cnn(C)c1)OC1CCCCC1c1cc(Cl)sc12 (stereo partly drawn) [Compound 1021, (2S)-2′-chloro-2-methyl-1-((1-methyl-1H-pyrazol-4-yl)methyl)-5a′,6′,7′,8′,9′,9a′-hexahydrospiro[piperidine-4,4′-thieno[2,3-c]chromene]]	100 to 500 nM
C[C@H]1CC2(CCN1Cc1cnn(CCS(C)(=O)=O)c1)OCC1(CC1)c1cc(Cl)sc12 (some centres unmarked) [Compound 1022, (2″S)-2′-chloro-2″-methyl-1″-((1-(2-(methylsulfonyl)ethyl)-1H-pyrazol-4-yl)methyl)-5′H-dispiro[cyclopropane-1,4′-thieno[2,3-c]pyran-7′,4″-piperidine]]	< 100 nM
C[C@H]1CC2(CCN1Cc1cnn(CCS(C)(=O)=O)c1)OCCc1c2sc2ccccc12 (stereo partly drawn) [Compound 1023, (2′S)-2′-methyl-1′-((1-(2-(methylsulfonyl)ethyl)-1H-pyrazol-4-yl)methyl)-3,4-dihydrospiro[benzo[4,5]thieno[2,3-c]pyran-1,4′-piperidine]]	500 to 1000 nM
Cc1cc2c(s1)[C@]1(CCN(Cc3cn[nH]c3)[C@@H](C)C1)OCC2 [Compound 1024, (2′S, 7R)-2,2′-dimethyl-1′-(1H-pyrazol-4-ylmethyl)spiro[4,5-dihydrothieno[2,3-c]pyran-7,4′-piperidine]]	< 100 nM
Cc1cc2c(s1)[C@]1(CCN(Cc3cnc(NC(C)(C)CO)nc3)[C@@H](C)C1)OCC2 [Compound 1025]	< 100 nM
Cc1cc2c(s1)[C@]1(CCN(Cc3cnn(CCS(C)(=O)=O)c3)[C@@H](C)C1)OCC2 [Compound 1026]	< 100 nM
Cc1cc2c(s1)[C@]1(CCN(Cc3cnn(CCO)c3)[C@@H](C)C1)OCC2 [Compound 1027, 2-[4-[[(2′S, 7R)-2,2′-dimethylspiro[4,5-dihydrothieno[2,3-c]pyran-7,4′-piperidine]-1′-yl]methyl]pyrazol-1-yl]ethanol]	< 100 nM
Cc1cc2c(s1)[C@]1(CCN(Cc3cnn(CC(C)(CO)CO)c3)[C@@H](C)C1)OCC2 [Compound 1028, 2-[[4-[[(2′S, 7R)-2,2′-dimethylspiro[4,5-dihydrothieno[2,3-c]pyran-7,4′-piperidine]-1′-yl]methyl]pyrazol-1-yl]methyl]-2-methyl-propane-1,3-diol]	< 100 nM
Cc1cc2c(s1)C1(CCN(Cc3cn(CCS(C)(=O)=O)nn3)[C@@H](C)C1)OCC2 (stereo partly drawn) [Compound 1029, (2′S)-2,2′-dimethyl-1′-[[1-(2-methylsulfonylethyl)triazol-4-yl]methyl]spiro[4,5-dihydrothieno[2,3-c]pyran-7,4′-piperidine]]	100 to 500 nM
Cc1cc2c(s1)[C@]1(CCN(Cc3cnn(CCS(C)(=O)=O)c3)[C@@H](C)C1)OCC2(O)C(F)F (stereo partly drawn) [Compound 1031, (2′S, 7R)-4-(difluoromethyl)-2,2′-dimethyl-1′-[[1-(2-methylsulfonylethyl)pyrazol-4-yl]methyl]spiro[5H-thieno[2,3-c]pyran-7,4′-piperidine]-4-ol]	< 100 nM
C[C@H]1C[C@@]2(CCN1Cc1cnn(CCS(C)(=O)=O)c1)OCCc1cc(CC(F)(F)F)sc12 [Compound 1032, (2′S, 7R)-2′-methyl-1′-[[1-(2-methylsulfonylethyl)pyrazol-4-yl]methyl]-2-(2,2,2-trifluoroethyl)spiro[4,5-dihydrothieno[2,3-c]pyran-7,4′-piperidine]]	< 100 nM
C[C@H]1C[C@@]2(CCN1Cc1cnn(CCS(C)(=O)=O)c1)OCCc1cc(C3CCC3)sc12 [Compound 1033, (2′S,7R)-2-cyclobutyl-2′-methyl-1′-[[1-(2-methylsulfonylethyl)pyrazol-4-yl]methyl]spiro[4,5-dihydrothieno[2,3-c]pyran-7,4′-piperidine]]	< 100 nM
C[C@H]1C[C@@]2(CCN1Cc1cnn(CCS(C)(=O)=O)c1)OCCc1cc(C3CC3)sc12 [Compound 1034, (2′S, 7R)-2-cyclopropyl-2′-methyl-1′-[[1-(2-methylsulfonylethyl)pyrazol-4-yl]methyl]spiro[4,5-dihydrothieno[2,3-c]pyran-7,4′-piperidine]]	< 100 nM
C[C@H]1C[C@@]2(CCN1Cc1cnn(CCS(C)(=O)=O)c1)OCCc1cc(C#N)sc12 [Compound 1035, (2′S,7R)-2′-methyl-1′-[[1-(2-methylsulfonylethyl)pyrazol-4-yl]methyl]spiro[4,5-dihydrothieno[2,3-c]pyran-7,4′-piperidine]-2-carbonitrile]	< 100 nM
CCc1cc2c(s1)[C@]1(CCN(Cc3cn(CCS(C)(=O)=O)nn3)[C@@H](C)C1)OCC2 [Compound 1036, (2′S, 7R)-2-ethyl-2′-methyl-1′-[[1-(2-methylsulfonylethyl)triazol-4-yl]methyl]spiro[4,5-dihydrothieno[2,3-c]pyran-7,4′-piperidine]]	< 100 nM
CCc1cc2c(s1)[C@]1(CCN(Cc3cnn(CCS(C)(=O)=O)c3)[C@@H](C)C1)OCC2O (stereo partly drawn) [Compound 1037, (2′S, 7R)-2-ethyl-2′-methyl-1′-[[1-(2-methylsulfonylethyl)pyrazol-4-yl]methyl]spiro[4,5-dihydrothieno[2,3-c]pyran-7,4′-piperidine]-4-ol]	< 100 nM
CCc1cc2c(s1)[C@]1(CCN(Cc3cn(CCS(C)(=O)=O)nn3)[C@@H](C)C1)OCC2O (stereo partly drawn) [Compound 1038, (2′S,7R)-2-ethyl-2′-methyl-1′-[[1-(2-methylsulfonylethyl)triazol-4-yl]methyl]spiro[4,5-dihydrothieno[2,3-c]pyran-7,4′-piperidine]-4-ol]	< 100 nM
